For data set [1], the system named is locomotor hyperactivity induced by amfoneric acid. The data set can be described thus: Inhibitory activity against locomotor hyperactivity induced by amfoneric acid. It counts as in vivo, ddy male mouse. The note with it: Mus musculus, ip, 100 min, amfoneric acid 2.5 mg/kg s.c., total count over 100 minutes, read-out: Inhibition Rate; for inhibition in vivo at 30 mg/kg: 30 mg/kg intraperitoneal; for inhibition in vivo at 10 mg/kg: 10 mg/kg intraperitoneal, * 0.05 > P > 0.01, ** 0.01 > P > 0.001. As to the method:
The inhibitory activity against locomotor hyperactivity induced by amfoneric acid of the present compounds were determined according to a method described in the "Journal of Pharmacology & Experimental Therapeuties," Vol. 239, 124-131 (1986) by R. T. Matthews et al.
That is, to a ddy male mouse having a body weight of about 25g, were simultaneously administered amfoneric acid (2.5 mg/kg, subcutaneous administration) and the present compound (intraperitoneal administration),and the amount of movement was determined using an apparatus for determining the amount of movement of a mouse. The amount of movement was determined over 100 minutes, and the test of significance thereof was effected for the total count number for 100 minutes by a Manwhitnee test. The value was indicated as the inhibition rate based, as a control, upon the group to which 2.5 mg/kg of amfoneric acid was subcutaneously administered.

For the next data set, the target named is T1, σ-receptor (Rattus norvegicus, UniProt Q9R0C9).
T1 construct: all of the cerebra, other than the cerebellum, of Wistar male rats; from tissue; host or cells: rat brain (cerebra without cerebellum), crude washed membranes
T1 sequence (Q9R0C9 whole entry): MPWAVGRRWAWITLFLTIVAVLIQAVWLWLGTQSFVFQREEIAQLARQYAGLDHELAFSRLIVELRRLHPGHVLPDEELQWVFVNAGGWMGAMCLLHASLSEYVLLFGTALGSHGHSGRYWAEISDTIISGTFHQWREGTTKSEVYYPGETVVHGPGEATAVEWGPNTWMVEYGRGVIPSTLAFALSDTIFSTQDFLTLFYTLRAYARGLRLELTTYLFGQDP
As to the kind of experiment: Affinity to σ-receptor ([3H]3PPP binding, rat cerebra without cerebellum). Set-up: species or system Wistar male rats. The note with it: 3 nM [3H]3PPP, 25° C., 90 minutes; non-specific: 1 μM haloperidol; read-out: Affinity to δ-Receptor IC50. As to the method: The affinities of the present compounds to the […] were determined according to a method described in the "Molecular Pharmacology," Vol. 32, 772-784 (1987).
That is, 50 mM of a Tris-HCl (pH=7.7) buffer solution was added to all of the cerebra, other than the cerebellum, of Wistar male rats, followed by homogenizing for […] in a Polytson® and then centrifugally separating same at 35000 G for 10 minutes. To the resultant precipitate was added the same buffer solution as used above, and the homogenizing and the centrafugalization were repeated. This procedure was repeated once more, and to the final precipitate was added a 50 mM Tris -HCl (pH=8.0) buffer solution and the receptor having a binding capability. In the binding experiments, 3nM [^3 H] propyl-3-(3-hydroxyphenyl) piperidine (i.e., [^3 H]3PPP) was used, and as a non-specific ligand, 1 μM haloperidol was used. After incubation at 25° C. for 90 minutes, the bound ligand was recovered by filtration and the determination was carried out. The filter used was a Whatmen GF/B filter treated with 0.5% polyethylene imine.

The next data set has as its system catalepsy. As to the kind of experiment: Catalepsy. It counts as in vivo, ddy male mice. The settings on record: scored after 30, 60, 90, and 120 minutes. As to the method: To ddy male mice having a body weight of about 25 g was intraperitoneally administered the present compound and the catalepsy was determined after 30, 60, 90, and 120 minutes therefrom. The score of the catalepsy was as follows.
The forelegs of the mouse were placed on an aupper edge of a 5.5 cm height box and the time until the more fulled its forelegs down from the box or the mouse jumped up onto the top of the box was measured and the score was determined based upon the following standard.

SMILES strings stand for the structures. pIC50: −log10 of the molar value.

In the case of `OC(CCCN1CCN(c2ncc(F)cn2)CC1)c1ccc(F)cc1` (centres unmarked) [BMY14802, reference compound], the inhibition in vivo at 30 mg/kg in data set [1] (* 0.05 > P > 0.01) is 51%.
Regarding `O=C1c2ccccc2OCCN1CCCCN1CCC(c2ccccc2)CC1` [Example 1, 4-(4-(4-phenyl)-1-piperidinyl)butyl-2,3,4,5-tetrahydro-1,4-benzoxazepin-5-one], the pIC50 (usually the IC50 on a negative log10 scale, so that one unit is a factor of ten) on σ-receptor is 7.85.
Still for that read-out and setting: with `O=C1c2ccccc2OCCN1CCCCN1CCC(c2ccc(Cl)cc2)CC1` [Example 2, 4-(4-(4-(4-chlorophenyl)-1-piperidinyl)butyl)-2,3,4,5-tetrahydro-1,4-benzoxazepin-5-one] the figure was 7.93; with `O=C1COc2ccccc2CN1CCCCN1CCC(c2ccccc2)CC1` [Example 4], 8.04; with `O=C1COc2ccccc2CN1CCCCN1CCC(c2ccc(Cl)cc2)CC1` [Example 5], 7.73.
As for `O=C1COc2ccccc2C(=O)N1CCCCN1CCC(c2ccccc2)CC1` [Example 8, 4-(4-(4-phenyl)-1-piperidinyl)butyl-2,3,4,5-tetrahydro-1,4-benzoxazepine-3,5-dione], the pIC50 on σ-receptor was 8.18. In data set [1] (* 0.05 > P > 0.01), the inhibition in vivo at 30 mg/kg came to 73%. Moreover, the Catalepsy result in the data set on catalepsy (30 mg/kg intraperitoneal) was “- (less than 1)”.
On to `O=C1COc2ccccc2C(=O)N1CCCCN1CCC(c2ccc(Cl)cc2)CC1` [Example 9, 4-(4-(4-(4-chlorophenyl)-1-piperidinyl)butyl)-2,3,4,5-tetrahydro-1,4-benzoxazepine-3,5-dione], for which, at σ-receptor, the pIC50 is 8.33.
Same read-out and setting: with `O=C1COc2ccccc2C(=O)N1CCCCN1CC=C(c2ccccc2)CC1` [Example 12, 4-(4-(4-phenyl-1,2,3,6-tetrahydro)-1-pyridyl)butyl-2,3,4,5-tetrahydro-1,4-benzoxazepine-3,5-dione] the figure was 7.92; with `O=C1COc2ccccc2C(=O)N1CCCCN1CCC(c2ccccn2)CC1` [Example 14, 4-(4-(4-(2-pyridyl)-1-piperidinyl)butyl)-2,3,4,5-tetrahydro-1,4-benzoxazepine-3,5-dione], 7.75.
Still for that read-out and setting: with `O=C1CSc2ccccc2C(=O)N1CCCCN1CCC(c2ccccc2)CC1` [Example 17, 4-(4-(4-phenyl)-1-piperidinyl)butyl-2,3,4,5-tetrahydro-1,4-benzothiazepine-3,5-dione] the figure was 8.40.
Regarding `O=C1CNc2ccccc2C(=O)N1CCCCN1CCC(c2ccccc2)CC1` [Example 18, 4-(4-(4-phenyl)-1-piperidinyl)butyl-2,3,4,5-tetrahydro-1,4-benzodiazepine-3,5-dione], at σ-receptor, the pIC50 was 7.85. Also, the inhibition in vivo at 1 mg/kg in data set [1] (1 mg/kg intraperitoneal, * 0.05 > P > 0.01) amounted to 65%. In data set [1], the inhibition in vivo at 10 mg/kg turned out to be 90%. Moreover, the Catalepsy result in the data set on catalepsy (10 mg/kg intraperitoneal) is “- (less than 1)”.
For the compound `O=C1CNc2ccccc2C(=O)N1CCCCN1CCC(c2ccc(Cl)cc2)CC1` [Example 19], the pIC50 on σ-receptor was 7.79. Further, the inhibition in vivo at 10 mg/kg in data set [1] was 53%. The Catalepsy result in the data set on catalepsy (20 mg/kg intraperitoneal) is listed as “- (less than 1)”.
Consider `CN1CC(=O)N(CCCCN2CCC(c3ccccc3)CC2)C(=O)c2ccccc21` [Example 21, 1-methyl-4-(4-(4-phenyl) -1-piperidinyl)butyl-2,3,4,5-tetrahydro-1,4-benzodiazepine-3,5-dione], for which the pIC50 on σ-receptor was 7.86. Besides, the Catalepsy entry in the data set with catalepsy (30 mg/kg intraperitoneal) is listed as “- (less than 1)”.
Regarding `O=C1CCc2ccccc2C(=O)N1CCCCN1CCC(c2ccccc2)CC1` [Example 22, 2-(4-(4-phenyl)-1-piperidinyl)butyl-1,3,4,5-tetrahydro-2-benzazepine-1,3-dione], the pIC50 on σ-receptor was 8.43. Moreover, the inhibition in vivo at 10 mg/kg in data set [1] turned out to be 52%.
In the case of `O=C1CCc2ccccc2C(=O)N1CCCCN1CCC(c2ccc(Cl)cc2)CC1` [Example 23, 2-(4-(4-(4-chlorophenyl)-1-piperidinyl)butyl)-1,3,4,5-tetrahydro-2-benzazepine-1,3-dione], the pIC50 on σ-receptor was 8.19.
Consider `O=C1c2ccccc2OCCN1CCCCCN1CCC(c2ccccc2)CC1` [Example 26, 4-(5-(4-phenyl)-1-piperidinyl)pentyl-2,3,4,5-tetrahydro-1,4-benzoxazepin-5-one], for which, on σ-receptor, the pIC50 was 7.96. The inhibition in vivo at 10 mg/kg in data set [1] came out at 65%. For the same compound, the Catalepsy result in the data set with catalepsy (30 mg/kg intraperitoneal) is given as “- (less than 1)”.
With `O=C1c2ccccc2OCCN1CCCCCN1CCC(c2ccc(Cl)cc2)CC1` [Example 27, 4-(5-(4-(4-chlorochenyl)1-piperidinyl)pentyl)-2,3,4,5-tetrahydro-1,4-benzoxazepin-5-one], the pIC50 at σ-receptor is 7.97.
Same read-out and setting: with `O=C1COc2ccccc2CN1CCCCCN1CCC(c2ccccc2)CC1` [Example 28, 4-(5-(4-phenyl)-1-piperidinyl)pentyl-2,3,4,5-tetrahydro-1,4-benzoxazepin-3-one] the figure was 8.10.
Turning to `O=C1COc2ccccc2CN1CCCCCN1CCC(c2ccc(Cl)cc2)CC1` [Example 29], the pIC50 at σ-receptor is 7.99. For the same compound, the inhibition in vivo at 10 mg/kg in data set [1] stood at 60%. Moreover, the Catalepsy entry in the data set on catalepsy (30 mg/kg intraperitoneal) was “- (less than 1)”.
As to `O=C1COc2ccccc2C(=O)N1CCCCCN1CCC(c2ccccc2)CC1` [Example 30, 4-(5-(4-phenyl)-1-piperidinyl)pentyl-2,3,4,5-tetrahydro-1,4-benzoxazepine-3,5-dione], at σ-receptor, the pIC50 is 8.33. For the same compound, the inhibition in vivo at 30 mg/kg in data set [1] (* 0.05 > P > 0.01) came out at 70%. In addition, the Catalepsy entry with catalepsy (30 mg/kg intraperitoneal) is “- (less than 1)”.
Take `O=C1COc2ccccc2C(=O)N1CCCCCN1CCC(c2ccc(Cl)cc2)CC1` [Example 31]: at σ-receptor, the pIC50 was 8.11. Also, the Catalepsy entry with catalepsy (30 mg/kg intraperitoneal) is listed as “- (less than 1)”.
Turning to `O=C1CSc2ccccc2C(=O)N1CCCCCN1CCC(c2ccccc2)CC1` [Example 32, 4-(5-(4-phenyl)-1-piperidinyl)pentyl-2,3,4,5-tetrahydro-1,4-benzothiazepine-3,5-dione], on σ-receptor, the pIC50 is 8.40.
The same measure, in the same setting: with `O=C1CSc2ccccc2C(=O)N1CCCCCN1CCC(c2ccc(Cl)cc2)CC1` [Example 33] the figure was 7.75; with `O=C1CCc2ccccc2C(=O)N1CCCCCN1CCC(c2ccccc2)CC1` [Example 36, 2-(5-(4-phenyl)-1-piperidinyl)pentyl-1,3,4,5-tetrahydro-2-benzazepine-1,3-dione], 8.44.
With `O=C1CCc2ccccc2C(=O)N1CCCCCN1CCC(c2ccc(Cl)cc2)CC1` [Example 37, 2-(5-(4-(4-chlorophenyl)-1-piperidinyl)pentyl)-1,3,4,5-tetrahydro-2-benzazepine-1,3-dione], the pIC50 on σ-receptor was 8.05. For the same compound, in data set [1], the inhibition in vivo at 10 mg/kg is 74%. In addition, in the data set on catalepsy (30 mg/kg intraperitoneal), the Catalepsy result is “- (less than 1)”.
`O=C(CCCN1CCC(O)(c2ccc(Cl)cc2)CC1)c1ccc(F)cc1` [Haloperidol, reference compound]: the Catalepsy entry in the data set on catalepsy (0.1 mg/kg intraperitoneal, control) is on record as “++ (more than 2 but less than 3)”.

The record behind these values is patent US5158947A, “Condensed heterocyclic compounds and psychopharmaceutical composition containing same” (Suntory Limited, priority 1990, dated 1992).
